Data published in EP2444396A1, “PHOTOPROTECTIVE COMPOSITION” (Apoteknos Para La Piel, S.L., priority 2009, dated 2010).

Experiments:
[1] = molecular target: T1, ERα (Homo sapiens, UniProt P03372); assay: Estrogenicity reporter gene bioassay (luciferase activity) in HELN-ERα cells; assay type: cell-based
T1 construct: expressed in transfected cells; host or cells: HeLa (HELN-ERα)
T1 sequence (P03372 1-595): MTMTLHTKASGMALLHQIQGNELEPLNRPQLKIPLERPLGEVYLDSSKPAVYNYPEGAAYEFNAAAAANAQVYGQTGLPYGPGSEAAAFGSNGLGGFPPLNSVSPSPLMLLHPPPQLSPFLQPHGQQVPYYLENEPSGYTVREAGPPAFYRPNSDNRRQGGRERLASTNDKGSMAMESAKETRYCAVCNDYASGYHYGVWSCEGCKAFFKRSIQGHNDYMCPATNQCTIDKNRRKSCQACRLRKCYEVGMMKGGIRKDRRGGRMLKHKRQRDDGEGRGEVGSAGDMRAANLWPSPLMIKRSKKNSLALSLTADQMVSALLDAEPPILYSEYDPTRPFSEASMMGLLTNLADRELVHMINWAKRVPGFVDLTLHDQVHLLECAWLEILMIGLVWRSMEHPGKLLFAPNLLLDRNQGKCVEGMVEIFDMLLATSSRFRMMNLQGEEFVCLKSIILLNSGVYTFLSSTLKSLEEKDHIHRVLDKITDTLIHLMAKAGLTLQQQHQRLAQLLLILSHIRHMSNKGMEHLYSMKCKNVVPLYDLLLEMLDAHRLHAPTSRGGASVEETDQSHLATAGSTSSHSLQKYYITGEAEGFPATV
Text: (§1) Briefly, the transactivation bioassay (Reporter gene assay) used are based on the use of breast and uterine cancer cell lines transfected with different native or modified hormone receptors. The resulting cell lines further contain a reporter gene regulated by estrogens through the estrogen response element, the globin promoter and the luciferase gene.
HELN-ERα and HELN-ERβ cell lines were obtained by means of transfecting the HeLa uterine cancer cell line. In a first phase, said cells were transfected with an estrogen sensitive response element and then with the estrogen receptor alpha or beta (ERα or ERβ). The selection of clones resistant to geneticin and puromycin was performed using a concentration of 1 mg/mL and 0.5 mg/mL, respectively. The maintenance medium as well as the experimental medium of these 2 cell lines is DMEM F12 without phenol red supplemented with 6% of FBS (lacking of estrogens), 1% of penicillin / streptomycin, 1 mg/mL of geneticin and 0.5 µg/mL of puromycin.
(§2) The cells were seeded at a density of 5x10^4 cells per well in white opaque 96 well plates in 150 µL of experimental medium. After 8 hours, the compounds to be assayed (p-nitrolophine and estradiol) were prepared (concentrated 4x) in the same medium and were added to each well (50 µl). The cells were incubated for 16 hours at 37°C. At the end of the incubation, the medium was removed and replaced with fresh medium containing […] luciferin [at that concentration, luciferin diffuses into cell producing a luminescent signal which is stable after 5 minutes and for at least 2 hours]. The plates were then introduced in the luminometer to measure the luminescence for 2 seconds. A YicroBeta Trilux luminometer (EGG Wallac) apparatus was used to detect luciferase activity.
(§3) The assays were preformed in quadruple for each concentration (0.01-10 µM) in at least three independent experiments. […] The values of luciferase activity obtained were analyzed using the one-way ANOVA statistic test. The differences were considered significant when P was less than […] (P < 0.05).

[2] = Absorption spectrum in methanol (195 - 400 nm); assay type: physicochemical; conditions: peak wavelength, 10 mg/ml
Method: In order to determine the absorption spectrum, a solution of 10 mg/ml of methanol was prepared from each of the substances. The methanol in turn was used to adjust the zero absorbance in each of the wavelengths in the range of 195 - 400 nm.

[3] = molecular target: T2, estrogen receptor alpha (ERα) (Homo sapiens, UniProt P03372); assay: Estrogenicity reporter gene bioassay (luciferase activity) in MELN cells; assay type: cell-based
T2 construct: which endogenously express the estrogen receptor alpha (ERα); endogenous in cells; host or cells: MELN (MCF-7 stably transfected with ERE-βGlob-Luc-SV-Neo)
T2 sequence (P03372 1-595): T1 sequence (P03372 1-595)
Text: as §1
MELN cells were obtained by means of transfecting the MCF-7 breast cancer cell line [which endogenously express the estrogen receptor alpha (ERα)] with an estrogen sensitive response element (ERE-βGlob-Luc-SV-Neo). The selection of clones resistant to geneticin was performed using a concentration of 1 mg/mL. The maintenance medium for this cell line is DMEM F12 (Dulbecco's modified Eagle medium) with phenol red supplemented with 10% FBS, 1% of penicillin/streptomycin and 1 mg/mL of geneticin. Due to the estrogenic activity of the phenol red and FBS, the experiments are preformed in medium known as experimental medium, i.e., a culture medium without phenol red and with FBS lacking of estrogens. The experimental medium for this line is DMEM without phenol red supplemented with 3% of FBS treated with carbon-dextran.
as §2, §3

[4] = Photostability evaluation (irradiation in MeOH, TLC analysis); assay type: physicochemical; conditions: MeOH, irradiated for 2 hours, 450W lamp; approximate estimation of the total sum of photoproducts
Method: All the irradiations preformed in the photostability studies were carried out in an ACE 7840 photoreactor using a 450W power ACE 7825 lamp.
The solvent used in the photostability test was methanol [MeOH] (ppa) (250 mL), using a concentration of […] of p-nitrolophine. The solution was irradiated for 2 hours, samples being taken at 10 minutes, 20 minutes, 1 hour and 2 hours, and being dried in a rotating evaporator. Each sample was analyzed by thin layer chromatography (TLC in Silica gel) using petroleum ether:ethyl acetate (4:1) as eluent. The chromatography plates were viewed under a 254 nm lamp and a 366 nm lamp, as well as by means of simultaneous viewing under both lamps (254 and 366 nm).
Specifically, three photoproducts (three blots) could be determined, which were isolated by preparative TLC.
A saturated solution of m-nitrolophine in MeOH was prepared to perform the study since the solubility in this solvent is low (approximately 0.2 mg/mL). Briefly, an amount of m-nitrolophine sufficient to ensure the saturation in 200 mL of MeOH throughout the night was left stirring. The solution was filtered and irradiated for 2 hours, samples of 10 mL being taken at 10 minutes, 20 minutes, 1 hour and 2 hours, and being dried in rotating evaporator. […]

activity at 0.01 µM [1]: 11.1 ± 0.9%
activity at 0.03 µM [1]: 11.7 ± 0.9%
activity at 0.1 µM [1]: 10.7 ± 1.1%
activity at 0.3 µM [1]: 11.3 ± 1.5%
activity at 1 µM [1]: 11.1 ± 1.1%
activity at 3 µM [1]: 11.2 ± 1.4%
activity at 10 µM [1]: 11.6 ± 1.5%
estrogenicity ([1]; HELN-ERα line, conclusion in words): not estrogenic
maximum absorption [2]: 379 nm
activity at 0.01 µM [3]: 15.2 ± 0.6%
activity at 0.03 µM [3]: 15.3 ± 0.5%
activity at 0.1 µM [3]: 15.6 ± 0.3%
activity at 0.3 µM [3]: 15.5 ± 0.9%
activity at 1 µM [3]: 16 ± 0.4%
activity at 3 µM [3]: 15.2 ± 0.4%
activity at 10 µM [3]: 15.6 ± 0.9%
estrogenicity ([3]; MELN cells, up to 10 µM, conclusion in words): not an estrogenic compound
degradation [4]: lower than 5%
SMILES: O=[N+]([O-])c1ccc(-c2nc(-c3ccccc3)c(-c3ccccc3)[nH]2)cc1 [p-nitrolophine, 2-(4-nitrophenyl)-4,5-diphenyl-1H-imidazole]
